Values quoted from earlier work, collected in US12245592B2, “Encapsulated biocides and biorepellents” (Aerogel ApS, priority 2018, dated 2025).

Details: pure biocide

Molecule: N#Cc1c(-c2ccc(Cl)cc2)[nH]c(C(F)(F)F)c1Br [Econea, 4-bromo-2-(4-chlorophenyl)-5-(trifluoromethyl)-1H-pyrrole-3-carbonitrile]
- Biocide density: 1.71 gr/cm^3

Molecule: On1ccccc1=S.On1ccccc1=S.[Cu] [Copper pyrithione, copper pyrithione]
- Biocide density: 1.82 gr/cm^3

Molecule: N#C[S][Cu][S]C#N [Copper thiocyanate]
- Biocide density: 2.84 gr/cm^3

Molecule: Zinc pyrithione
- Biocide density: 1.78 gr/cm^3
